In this test the test system is Staphylococcus aureus (S. aureus—ATCC #6538). The experiment in a line: Minimum Biocidal Concentration (MBC) in suspension. It is filed as cell-based. As to the method:
B) Antibacterial Efficacy (Minimum Biocidal Concentration in Suspension) The antimicrobial efficacy of the antimicrobial agent in the composition is determined by measuring its Minimum Biocidal Concentration (MBC). The MBC is defined as the lowest absolute concentration of the particular antimicrobial active which provides complete kill (zero bacterial growth). The MBC of the compositions herein is determined against the bacterium, Staphylococcus aureus (S. aureus—ATCC #6538), a gram positive bacterium, These microorganisms are representative of natural contaminants in many consumer and industrial applications. The bacteria inoculum is prepared by transferring several colonies from a Tryptone Soy Agar (TSA) plate to a saline solution (0.85% NaCl) comprising 5% of horse serum as additional soil load when indicated, the bacteria concentration in this saline solution is determined by measuring the % Transmittance at 425 nm and adjusted by either adding more bacteria or more saline solution until the % Transmittance at 425 nm is between 23-25% which corresponds to a bacteria concentration of 10^8 CFU/ml. The antimicrobial agent was added to the composition at a level of 1000 ppm, 500 ppm, or 200 ppm, or 100 ppm or 50 ppm. 200 μL of the antimicrobial hard surface cleaning composition was dosed into one well of row A of a 96 well microtiter plate. Each subsequent well (rows B to G) were dosed with 100 μL of the same hard surface cleaning composition, without the addition of the antimicrobial agent. 100 μL of the antimicrobial hard surface cleaning composition was transferred from row A to row B and mixed. 100 μL of the composition was then transferred from row B to row C and mixed, and the process repeated to row G. As such, the concentration of the antimicrobial agent underwent two-fold dilution in adjacent wells, while the concentration of the other actives in the hard surface cleaning composition remained constant across all the wells in the same column. 10 μL of the 10^8 CFU/ml bacteria suspension in saline was added to wells A to F of the microtiter plate with row G kept as a nil bacteria control. The final volume in each well was 110 μL, except for row G which comprised 100 μL of the hard surface cleaning composition and no bacteria suspension. Bacterial inoculation to each column was staggered by 30 seconds to allow for equal incubation times in all wells so that the contact time between the bacteria and the antimicrobial active for all samples was 6 mins. After this contact time, 10 μL of each test solution was transferred to 90 μL of neutraliser solution (Modified Letheen Broth+1.5% Polysorbate 80, supplied by BioMérieux) to stop the antimicrobial action of the antimicrobial active matching the stagger of the inoculation. 2 μL of this solution was plated onto a TSA plate matching the stagger of the inoculation so that all samples are exposed to the neutralizer for the same period of time. The plate is incubated at 32.5° C. for 48 h for S. aureus. MBC concentration is taken as the lowest concentration of the antimicrobial active at which no visible colony growth is observed on the TSA plate. The antibacterial efficacy of the bispyridinium alkane octenidine hydrochloride was compared to that of the quaternary ammonium compound n-alkyl dimethyl benzyl ammonium chloride/n-alkyl dimethyl ethylbenzyl ammonium chloride (BTC®2125-Stepan) in acidic compositions comprising 1% of the indicated surfactant. Compositions were acidified using either an inorganic acid (hydrochloric acid) or an organic acid (citric acid). The minimal biocidal concentration (MBC) in suspension of each antibacterial active against a gram positive bacterium (Staphylococcus aureus) was measured in the presence of 5% horse serum to mimic stressed soiled conditions. Contact time was 6 minutes except for the composition with 1% of dodecyldimethyl amine oxide that was 30 seconds.

Where a name gives a salt, the structure may show the parent alone. A value given as a limit tells only on which side of the number the result lay.

Experimental findings from US20210029998A1, “ACIDIC ANTIMICROBIAL COMPOSITION” (The Procter & Gamble Company, priority 2019, published 2021) are described below.

As usually defined, the MBC is the lowest tested concentration that kills the bacteria rather than only halting them. Higher therefore signals weaker bactericidal potency. With `CCCCCCCCN=c1ccn(CCCCCCCCCCn2ccc(=NCCCCCCCC)cc2)cc1` [Octenidine, octenidine dihydrochloride], the MBC (ATCC6538, 0.1 h, pH 3.83, acidic composition with 1% w/v D-glucopyranose oligomeric decyl octyl glucoside (Triton CG 50), citric acid, pH 3.83, 5% horse serum, contact time 6 minutes) was 62.5 µg/mL; the MBC (ATCC6538, 0.1 h, pH 3.83, acidic composition with 1% w/v cocoamidopropyl hydroxysultaine (Mackam SB 50), HCl, pH 3.83, 5% horse serum, contact time 6 minutes) was 62.5 µg/mL; the MBC (ATCC6538, 0.1 h, pH 3.86, acidic composition with 1% w/v C9-C11 alcohol EO8 (Neodol 91-8), HCl, pH 3.86, 5% horse serum, contact time 6 minutes) turned out to be 62.5 µg/mL; the MBC (ATCC6538, 0.1 h, pH 3.86, acidic composition with 1% w/v C10 EO5 alcohol ethoxylate (Lutensol ON 50), HCl, pH 3.86, 5% horse serum, contact time 6 minutes) is below 31 µg/mL; the minimum bactericidal concentration (MBC) (ATCC6538, 0.1 h, pH 3.87, acidic composition with 1% w/v 2-ethylhexyl PO5EO6 alkylalkoxylate (Ecosurf EH6), HCl, pH 3.87, 5% horse serum, contact time 6 minutes) is below 31 µg/mL; the minimum bactericidal concentration (MBC) (ATCC6538, pH 3.88, acidic composition with 1% w/v dodecyl dimethyl amine oxide (Empigem OB), citric acid, pH 3.88, 5% horse serum, contact time 30 seconds) came out at 62.5 µg/mL.
